ChEMBL document CHEMBL1201862, “PubChem BioAssay data set” (2004)
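1) Cells in 96-well plates. 2) Compound, 48 h, 5 concentrations. 3) Linear interpolation between surrounding doses. 4) Unreached endpoint = highest concentration. GI50 marks 50% less growth.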 Activity calls are given as the source filed them. Rule as the data show it: active = GI50 up to about 1.1 µM and inactive = higher.

Tests used:
Assay in all cases: NCI tumour cell line growth inhibition, 48 h
HCT-15 = tested on: HCT-15
IGROV-1 = tested on: IGROV-1
BT-549 = tested on: BT-549
RXF 393 = tested on: RXF 393
HL-60 = tested on: HL-60
SK-MEL-5 = tested on: SK-MEL-5
NCI-H522 = tested on: NCI-H522
PC-3 = tested on: PC-3
SNB-19 = tested on: SNB-19
K562 = tested on: K562
MDA-MB-231 = tested on: MDA-MB-231
SR = tested on: SR
OVCAR-3 = tested on: OVCAR-3
CCRF-CEM = tested on: CCRF-CEM
HOP-92 = tested on: HOP-92
UACC-257 = tested on: UACC-257
NCI/ADR-RES = tested on: NCI/ADR-RES
MCF7 = tested on: MCF7
ACHN = tested on: ACHN
UACC-62 = tested on: UACC-62

| SMILES | GI50 (HCT-15) [µM] | GI50 (IGROV-1) | GI50 (BT-549) | GI50 (RXF 393) | GI50 (HL-60) | GI50 (SK-MEL-5) | GI50 (NCI-H522) | GI50 (PC-3) | GI50 (SNB-19) | GI50 (K562) | GI50 (MDA-MB-231) | GI50 (SR) | GI50 (OVCAR-3) | GI50 (CCRF-CEM) | GI50 (HOP-92) | GI50 (UACC-257) | GI50 (NCI/ADR-RES) | GI50 (MCF7) | GI50 (ACHN) | GI50 (UACC-62) |
| --- | --- | --- | --- | --- | --- | --- | --- | --- | --- | --- | --- | --- | --- | --- | --- | --- | --- | --- | --- | --- |
| CC(C)Cn1cnc2c(Sc3c([N+](=O)[O-])ncn3C)nc(N)nc21 | > 59.8 | > 47.5 µM (inactive) | 42.5 µM (inactive) | > 56.1 µM (inactive) | 30.3 µM (inactive) | 15.2 µM (inactive) | 26.3 µM (inactive) | 26.1 µM (inactive) | > 100 µM (inactive) | > 47.3 µM (inactive) | 64.4 µM (inactive) | 38.7 µM (inactive) | > 35 µM (inactive) | 38.6 µM (inactive) | 14.9 µM (inactive) | > 49.3 µM (inactive) | > 100 µM (inactive) | 27.6 µM (inactive) | > 63.8 µM (inactive) | > 50.2 µM (inactive) |
| O=C1C(c2c(O)[nH]c3ccccc23)=Nc2ccc(Br)cc21 | 76.2 | 3.37 µM (inactive) | 28.2 µM (inactive) | 12.9 µM (inactive) | 23.7 µM (inactive) | > 100 µM (inactive) | 28.5 µM (inactive) | 14.8 µM (inactive) | 22 µM (inactive) | 27.2 µM (inactive) | 23.3 µM (inactive) | 26.5 µM (inactive) | 99.5 µM (inactive) | 21.2 µM (inactive) | 17.6 µM (inactive) | 58.6 µM (inactive) | 37.4 µM (inactive) | 1.24 µM (inactive) | 14.5 µM (inactive) | 17.6 µM (inactive) |
| N#Cc1cc2c(cc1Cl)Sc1nnc(Nc3ccccc3)n1S2(=O)=O | 2.08 | 2.2 µM (inactive) | 2.47 µM (inactive) | 1.73 µM (inactive) | 3.05 µM (inactive) | 2.43 µM (inactive) | 1.89 µM (inactive) | 1.74 µM (inactive) | 2.3 µM (inactive) | 1.44 µM (inactive) | 1.91 µM (inactive) | 0.15 µM (active) | 1.64 µM (inactive) | 1.56 µM (inactive) | 0.798 µM (active) | 1.79 µM (inactive) | 1.78 µM (inactive) | 8.39 µM (inactive) | 1.74 µM (inactive) | 1.83 µM (inactive) |
| CN1c2ccccc2C2c3c(O)ccc(O)c3C=C([N+](=O)[O-])C21 (stereo not given) | 1.08 | 0.492 µM (active) | 5.36 µM (inactive) | 3.91 µM (inactive) | 0.684 µM (active) | 0.548 µM (active) | 0.0621 µM (active) | 0.388 µM (active) | 0.619 µM (active) | 0.497 µM (active) | 0.656 µM (active) | 0.569 µM (active) | 0.0329 µM (active) | 1.04 µM (active) | 2.28 µM (inactive) | 0.19 µM (active) | 1.04 µM (active) | 0.155 µM (active) | 0.679 µM (active) | 0.957 µM (active) |
| Cc1cc(CS(=O)(=O)/C=C/c2ccccc2[N+](=O)[O-])c(CS(=O)(=O)/C=C/c2ccccc2[N+](=O)[O-])cc1C | > 33 | 30.8 µM (inactive) | 7.41 µM (inactive) | 10.3 µM (inactive) | > 79.4 µM (inactive) | 37.2 µM (inactive) | 23.7 µM (inactive) | 42.4 µM (inactive) | 28.1 µM (inactive) | 35.3 µM (inactive) | 16.4 µM (inactive) | 13.7 µM (inactive) | 49.1 µM (inactive) | 21.5 µM (inactive) | 33.2 µM (inactive) | > 65 µM (inactive) | 53.5 µM (inactive) | 8.13 µM (inactive) | 34.4 µM (inactive) | 23.6 µM (inactive) |
| CC(=O)O[C@H]1CC[C@H]2[C@@H]3CCC4C(C)=NNC(=O)C4[C@H]3CC[C@]12C (stereo not given in full) | > 100 | 27 µM (inactive) | > 45.3 µM (inactive) | 56.6 µM (inactive) | > 100 µM (inactive) | > 100 µM (inactive) | 34 µM (inactive) | > 100 µM (inactive) | 33.5 µM (inactive) | > 100 µM (inactive) | 33.3 µM (inactive) | > 100 µM (inactive) | > 100 µM (inactive) | > 100 µM (inactive) | 37.9 µM (inactive) | > 100 µM (inactive) | 45.4 µM (inactive) | > 100 µM (inactive) | 57.5 µM (inactive) | > 100 µM (inactive) |
| Cc1ccc(N2C(=O)C(=O)N(/N=C3\C(=O)Nc4ccccc43)C2=S)cc1 | 39.8 | 95.5 µM (inactive) | 85.3 µM (inactive) | 39.1 µM (inactive) | 0.0998 µM (active) | 41.2 µM (inactive) | 63.2 µM (inactive) | 39.4 µM (inactive) | > 100 µM (inactive) | 37.1 µM (inactive) | > 100 µM (inactive) | 38.7 µM (inactive) | 64.4 µM (inactive) | 7.96 µM (inactive) | > 100 µM (inactive) | > 100 µM (inactive) | 28.8 µM (inactive) | 43.2 µM (inactive) | 67.6 µM (inactive) | 92.9 µM (inactive) |
| COc1ccc2c(c1)[nH]c1c(/C=C/c3ccccc3)nccc12 | 11.5 | 14.7 µM (inactive) | 12.8 µM (inactive) | 14.8 µM (inactive) | 19.1 µM (inactive) | 14.8 µM (inactive) | 12.4 µM (inactive) | 16.1 µM (inactive) | 16 µM (inactive) | 15.9 µM (inactive) | 17.5 µM (inactive) | 3.47 µM (inactive) | 13.6 µM (inactive) | 17 µM (inactive) | 18.6 µM (inactive) | 16.1 µM (inactive) | 11 µM (inactive) | 16 µM (inactive) | 12.2 µM (inactive) | 14.5 µM (inactive) |
| COc1ccc2c(CC(=O)O)cc(=O)oc2c1 | > 100 | > 100 µM (inactive) | > 100 µM (inactive) | > 100 µM (inactive) | > 100 µM (inactive) | > 100 µM (inactive) | > 100 µM (inactive) | > 100 µM (inactive) | > 100 µM (inactive) | > 100 µM (inactive) | > 100 µM (inactive) | > 100 µM (inactive) | > 100 µM (inactive) | > 100 µM (inactive) | 86.1 µM (inactive) | > 100 µM (inactive) | > 100 µM (inactive) | > 100 µM (inactive) | > 100 µM (inactive) | > 100 µM (inactive) |
| CCOC(=O)Nc1cc2c(c(N)n1)N=C(c1ccc(Cl)cc1Cl)CN2 | < 0.0229 | 0.292 µM (active) | 0.791 µM (active) | < 0.01 µM (active) | 0.0132 µM (active) | < 0.0124 µM (active) | < 0.0213 µM (active) | < 0.0129 µM (active) | 0.019 µM (active) | < 0.01 µM (active) | 0.0442 µM (active) | < 0.01 µM (active) | 0.0109 µM (active) | < 0.0155 µM (active) | 17.3 µM (inactive) | 20.8 µM (inactive) | < 0.0154 µM (active) | 0.132 µM (active) | 0.0535 µM (active) | < 0.0105 µM (active) |
